pEC50: −log10 of the molar value. Converted amounts (≈) assume the structure as drawn.
Tests used:
[1] = Permeability of the compound by PAMPA method at pH 7.4; format: ADME; settings: read-out: permeability
[2] = Cytotoxicity index, ratio of EC50 for mouse J774 cells to EC50 for chloroquine, mefloquine, pyrimethamine and atovaquone-resistant Plasmodium falciparum TM90-C2B; format: cell-based; settings: read-out: Ratio EC50
[3] = Partition coefficient, log D of the compound at pH 7.4 by HPLC analysis; settings: octanol/water
Plasmodium falciparum [4] = assay: Antimalarial activity against chloroquine, mefloquine, pyrimethamine and atovaquone-resistant Plasmodium falciparum TM90-C2B infected in human A positive erythrocytes after 72 hrs by SYBR Green I assay; format: functional, organism-based
[5] = Aqueous solubility of compound at pH 7.4 by HPLC analysis; settings: buffer
J774 = assay: Cytotoxicity against mouse J774 cells after 72 hrs by Cell titer 96 aqueous one solution cell proliferation assay; format: cell-based; settings: J774, 72 h
Plasmodium falciparum [6] = assay: Resistance index, ratio of EC50 for chloroquine, mefloquine, pyrimethamine and atovaquone-resistant Plasmodium falciparum TM90-C2B to EC50 for chloroquine and pyrimethamine-resistant Plasmodium falciparum W2; format: functional
Plasmodium falciparum [7] = assay: Antimalarial activity against chloroquine and pyrimethamine-resistant Plasmodium falciparum W2 infected in human A positive erythrocytes after 72 hrs by SYBR Green I assay; format: functional, organism-based; settings: W2, 72 h

| Structure (SMILES) | Papp [1] | selectivity ratio [2] | logD [3] | pEC50 (Plasmodium falciparum [4]) | solubility [5] | pEC50 (J774) | Ratio EC50 (Plasmodium falciparum [6]) | pEC50 (Plasmodium falciparum [7]) |
| --- | --- | --- | --- | --- | --- | --- | --- | --- |
| Oc1c2c(nc3ccc(Br)cc13)CCCC2 | 63 ×10⁻⁶ cm/s | ≥ 100 | 2.1 | 7.19 | 2 µM (≈ 0.556 µg/mL) | < 5.70 | 0.32 | 6.71 |
| O=c1c2c([nH]c3cc([N+](=O)[O-])ccc13)CCCC2 | 63 ×10⁻⁶ cm/s | ≥ 100 | 1.5 | 6.02 | 3 µM (≈ 0.733 µg/mL) | < 5.70 | 0.91 | 5.98 |
| O=c1c2c([nH]c3ccc([N+](=O)[O-])cc13)CCCC2 | 6.9 ×10⁻⁶ cm/s | ≥ 100 | 1.5 | 6.42 | 8 µM (≈ 1.95 µg/mL) | < 5.30 | 0.12 | 5.50 |
| O=c1c2c([nH]c3c(F)cccc13)CCCC2 | 17 ×10⁻⁶ cm/s | ≥ 100 | 1.5 | 5.54 | 109 µM (≈ 23.7 µg/mL) | < 4.40 | 5.43 | 6.27 |
| O=c1c2c([nH]c3cc(F)ccc13)CCCC2 | 21 ×10⁻⁶ cm/s | ≥ 100 | 1.7 | 6.92 | 46 µM (≈ 9.99 µg/mL) | < 4.70 | 1.76 | 7.17 |
| O=c1c2c([nH]c3ccc(I)cc13)CCCC2 | 96 ×10⁻⁶ cm/s | ≥ 100 | 2.3 | 6.78 | 4 µM (≈ 1.3 µg/mL) | < 4.70 | 0.44 | 6.42 |
| O=c1c2c([nH]c3cc(Br)ccc13)CCCC2 | 70 ×10⁻⁶ cm/s | ≥ 100 | 2.8 | 6.94 | 14 µM (≈ 3.89 µg/mL) | < 5.00 | 1.48 | 7.11 |
| CC(C)(C)c1ccc2[nH]c3c(c(=O)c2c1)CCCC3 | 165 ×10⁻⁶ cm/s | ≥ 100 | 2.8 | 6.49 | 5 µM (≈ 1.28 µg/mL) | < 5.30 | 4.13 | 7.10 |
| CC(C)c1ccc2[nH]c3c(c(=O)c2c1)CCCC3 | 100 ×10⁻⁶ cm/s | ≥ 100 | 2.2 | 6.14 | 30 µM (≈ 7.24 µg/mL) | < 4.40 | 0.83 | 6.06 |
| CCOc1ccc2[nH]c3c(c(=O)c2c1)CCCC3 | 52 ×10⁻⁶ cm/s | ≥ 100 | 1.9 | 6.65 | 5 µM (≈ 1.22 µg/mL) | < 5.30 | 0.85 | 6.58 |
| CCOC(=O)c1ccc2[nH]c3c(c(=O)c2c1)CCCC3 | 63 ×10⁻⁶ cm/s | ≥ 100 | 2.1 | 7.23 | 8 µM (≈ 2.17 µg/mL) | < 5.30 | 0.38 | 6.82 |
| Cc1ccc(C)c2c(=O)c3c([nH]c12)CCCC3 | 263 ×10⁻⁶ cm/s | ≥ 100 | 2.6 | 5.62 | 122 µM (≈ 27.7 µg/mL) | < 4.70 | 0.78 | 5.51 |
| Cc1cc(C)c2[nH]c3c(c(=O)c2c1)CCCC3 | 58 ×10⁻⁶ cm/s | ≥ 100 | 2.2 | 6.11 | 108 µM (≈ 24.5 µg/mL) | < 4.40 | 0.72 | 5.97 |
| Cc1ccc2c(=O)c3c([nH]c2c1C)CCCC3 | 42 ×10⁻⁶ cm/s | ≥ 100 | 2.2 | 5.64 | 8 µM (≈ 1.82 µg/mL) | < 5.30 | 0.58 | 5.41 |
| COc1cc(OC)c2[nH]c3c(c(=O)c2c1)CCCC3 | 51 ×10⁻⁶ cm/s | ≥ 100 | 1.9 | 5.10 | 152 µM (≈ 39.4 µg/mL) | < 4.70 | <0.83 | < 5.02 |
| COc1cc(OC)c2c(=O)c3c([nH]c2c1)CCCC3 | 13 ×10⁻⁶ cm/s | ≥ 100 | 1.4 | 5.59 | 188 µM (≈ 48.7 µg/mL) | < 4.40 | <0.36 | < 5.14 |
| COc1ccc2c(=O)c3c([nH]c2c1OC)CCCC3 | 19 ×10⁻⁶ cm/s | ≥ 100 | 1.8 | 5.46 | 175 µM (≈ 45.4 µg/mL) | < 4.70 | 0.55 | 5.20 |
| COc1cc2[nH]c3c(c(=O)c2cc1OC)CCCC3 | 1 ×10⁻⁶ cm/s | ≥ 100 | 1.3 | 5.47 | 88 µM (≈ 22.8 µg/mL) | < 4.70 | 0.38 | 5.05 |
| O=c1c2c([nH]c3cc(Cl)cc(Cl)c13)CCCC2 | 134 ×10⁻⁶ cm/s | ≥ 100 | 2.5 | 7.02 | 8 µM (≈ 2.15 µg/mL) | < 5.30 | 1.1 | 7.06 |
| O=c1c2c([nH]c3c(Cl)c(Cl)ccc13)CCCC2 | 348 ×10⁻⁶ cm/s | ≥ 100 | 2.9 | < 5.03 | 41 µM (≈ 11 µg/mL) | < 4.70 | >1.47 | 5.20 |
| O=c1c2c([nH]c3cc(Cl)c(Cl)cc13)CCCC2 | 180 ×10⁻⁶ cm/s | ≥ 100 | 2.6 | 6.47 | 1 µM (≈ 0.268 µg/mL) | < 6.00 | 1.06 | 6.49 |
| O=c1c2c([nH]c3c(F)ccc(F)c13)CCCC2 | 12 ×10⁻⁶ cm/s | ≥ 100 | 1.3 | 5.88 | 159 µM (≈ 37.4 µg/mL) | < 4.40 | 1.64 | 6.09 |
| O=c1c2c([nH]c3c(F)cc(F)cc13)CCCC2 | 29 ×10⁻⁶ cm/s | ≥ 100 | 1.7 | 6.39 | 66 µM (≈ 15.5 µg/mL) | < 4.40 | 0.15 | 5.57 |
| O=c1c2c([nH]c3c(F)c(F)ccc13)CCCC2 | 38 ×10⁻⁶ cm/s | ≥ 100 | 1.9 | 6.42 | 93 µM (≈ 21.9 µg/mL) | < 4.40 | 0.36 | 5.98 |
| O=c1c2c([nH]c3cc(F)c(F)cc13)CCCC2 | 28 ×10⁻⁶ cm/s | ≥ 100 | 1.9 | 6.93 | 18 µM (≈ 4.23 µg/mL) | < 5.00 | 0.91 | 6.89 |
| COc1cc2c(=O)c3c([nH]c2cc1Cl)CCCC3 | 24 ×10⁻⁶ cm/s | ≥ 100 | 1.3 | 7.94 | 33 µM (≈ 8.7 µg/mL) | < 4.70 | 0.33 | 7.45 |
